The source of these data is paper PMC6434189, “Peperomin E and its orally bioavailable analog induce oxidative stress-mediated apoptosis of acute myeloid leukemia progenitor cells by targeting thioredoxin reductase” (Redox Biology, 2019).

Assay [1] deals with Trx-ASK1 complex in KG-1a CD34+ cells. Description: Trx1 immunoprecipitation, Trx-ASK1 interaction. Format: cell-based, human. The conditions noted are these: 0.5, 2.0, 5.0 μM. As to the method: The KG-1a CD34^+ cells were treated with PepE or vehicle control (DMSO) for 12 h. The cellular proteins were extracted by RIPA buffer and quantified by the Bradford method. For each cell lysate, a volume containing 1 mg protein was mixed with 1 μg anti-Trx1 antibody coupled to 20 μL protein G-Sepharose (Abcam) and tumbled at 4 °C for 2 h. The Sepharose beads were then washed three times at 4 °C with a washing buffer containing 50 mM Tris (pH = 7.4), 0.5 M NaCl, and 1 mM EGTA. The immunoprecipitated proteins were eluted and denatured by 2×SDS-PAGE loading buffer and then boiled for 5 min. The eluted solutions were then centrifuged at 12000 g; the supernatants were collected and stored at −20 °C for SDS-PAGE and western blot analyses.

The next assay deals with T1, Sec residue in TrxR1 (Homo sapiens, UniProt Q16881).
T1 construct: purchased Abcam ab204206
T1 sequence (Q16881 1-499 isoform Q16881-5): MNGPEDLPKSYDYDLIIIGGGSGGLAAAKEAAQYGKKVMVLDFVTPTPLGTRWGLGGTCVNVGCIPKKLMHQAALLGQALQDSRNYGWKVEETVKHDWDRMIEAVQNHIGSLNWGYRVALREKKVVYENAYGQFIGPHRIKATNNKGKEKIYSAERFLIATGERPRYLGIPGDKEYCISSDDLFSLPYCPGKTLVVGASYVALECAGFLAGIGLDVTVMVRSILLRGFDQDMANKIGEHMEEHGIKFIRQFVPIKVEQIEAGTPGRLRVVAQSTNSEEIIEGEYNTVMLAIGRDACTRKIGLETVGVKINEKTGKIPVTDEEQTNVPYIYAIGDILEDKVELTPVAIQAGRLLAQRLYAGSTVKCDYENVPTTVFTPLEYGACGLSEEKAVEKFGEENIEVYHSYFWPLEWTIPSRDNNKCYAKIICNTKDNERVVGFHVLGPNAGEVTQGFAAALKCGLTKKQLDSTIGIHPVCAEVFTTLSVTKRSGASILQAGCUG
Description: BIAM labeling assay. The conditions noted are these: pH 6.5; PepE 1, 5, 10 μM; DNCB 5 μM. It is filed as biochemical. As to the method:
To further assess whether the Sec residue in TrxR1 was the modified site of PepE. The BIAM labeling assay was performed according to previous report. Briefly, 100 μM BIAM stock solution in 100 mM Tris-HCl, 1 mM EDTA buffer (pH = 6.5) was freshly prepared before each test. The TrxR1 protein (1 μM) was incubated with different concentrations (1, 5, 10 μM) of PepE or 5 μM of DNCB (positive control) and DMSO (negative control) in 50 mM Tris-HCl, 1 mM EDTA buffer (pH = 7.5) and 400 μM NADPH at 37 °C. After incubation, 4 μL of the reaction mixture was withdrawn and added mixed with 20 μM of BIAM solution in 100 mM Tris-HCl, 1 mM EDTA assay buffer (pH = 6.5) for 30 min at 37 °C to allow selective alkylation of free Sec residues. The reaction was stopped by adding the IAA solution (final concentration 50 mM). The samples were then denatured in SDS buffer, boiled and subjected to SDS-PAGE and western-blotting on a 7.5% gel, and the separated proteins were transferred to nitrocellulose membrane. The enzymes labeled with BIAM were detected with HRP-conjugated streptavidin and enhanced chemiluminescence detection. The bands were analyzed using Gel-pro 32 software.

The target in the next assay is T2, GSS (Homo sapiens, UniProt P48637).
T2 construct: purchased Abcam
T2 sequence (P48637 1-474): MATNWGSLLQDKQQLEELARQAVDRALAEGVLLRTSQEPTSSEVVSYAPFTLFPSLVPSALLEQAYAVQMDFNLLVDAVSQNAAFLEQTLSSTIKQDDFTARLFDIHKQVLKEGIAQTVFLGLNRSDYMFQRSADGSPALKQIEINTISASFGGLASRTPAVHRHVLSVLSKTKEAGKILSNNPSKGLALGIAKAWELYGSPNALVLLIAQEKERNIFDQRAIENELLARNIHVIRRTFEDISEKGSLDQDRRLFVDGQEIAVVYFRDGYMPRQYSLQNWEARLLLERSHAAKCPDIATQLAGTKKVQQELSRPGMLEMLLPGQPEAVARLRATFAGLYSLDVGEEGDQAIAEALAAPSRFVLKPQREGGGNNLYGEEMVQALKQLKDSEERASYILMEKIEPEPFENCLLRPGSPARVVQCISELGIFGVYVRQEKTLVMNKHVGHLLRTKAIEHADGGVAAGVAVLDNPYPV
Description: BLI binding assay, GSS. As to the method:
(§1) The binding kinetics of PepE or PepA to purified recombinant proteins were determined using BLI on an Octet RED 96 system (ForteBio, Shanghai, China) following the manufacturer's protocol. All interaction analyses were performed at 25 °C in PBS with 0.2% DMSO. Purified recombinant proteins (0.9 μM, the TrxR1 full length and TrxR1 protein fragment were pre-reduced by 400 μM of NADPH before test) were pre-labeled with biotin using […] (Abcam) following the manufacturer's instruction. Loading of the Dip and Read Super Streptavidin (SSA) Biosensors (ForteBio) were conducted by exposing biotinylated proteins to biosensor tips for 2 h. The 96-well microplates used in the Octet were filled with 200 μL sample or buffer per well and agitated at 1000 rpm. The loaded biosensors were washed in buffer for 600 s and transferred to wells containing PepE at concentrations of 0.625, 1.25, 2.5, 5, and 10 μM or PepA at concentrations of 1.25, 2.5, 5, 10 and 20 μM, respectively, in the buffer. […] Reference measurements were conducted using the buffer instead of PepE (or PepA). A parallel set of SA unloaded biosensors was prepared to act as a control. The sample-sensorgrams were corrected by subtracting the double reference curve. Kinetic parameters (Kon and Kdis) and affinity (KD) were determined from a global fit to a 1:1 binding model of the data between proteins and PepE using Octet software (ForteBio).

In the next assay the target is T3, NADPH-reduced TrxR1 (Homo sapiens, UniProt Q16881).
T3 construct: purchased Abcam ab204206
T3 sequence (Q16881 1-499 isoform Q16881-5): T1 sequence (Q16881 1-499 isoform Q16881-5)
Description: Bio-layer interferometry (BLI) binding assay, TrxR1. The protocol: as §1

The target of the next assay is T4, GPX1 (Homo sapiens, UniProt P07203).
T4 construct: purchased Abcam
T4 sequence (P07203 1-203): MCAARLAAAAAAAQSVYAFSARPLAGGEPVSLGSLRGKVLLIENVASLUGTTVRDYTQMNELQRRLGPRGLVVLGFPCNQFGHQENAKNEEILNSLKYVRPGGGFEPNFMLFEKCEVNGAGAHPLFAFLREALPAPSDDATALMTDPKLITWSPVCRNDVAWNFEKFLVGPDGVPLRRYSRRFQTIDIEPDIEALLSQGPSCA
Put plainly: BLI binding assay, GPX1. The protocol: as §1, with “The sample-sensorgrams were corrected by subtracting the double reference curve.” left out
On the technique in general: In BLI a coated tip is dipped into the sample, and binding shifts an interference pattern.

As for `C=C1C(=O)OC[C@H]1C(c1cc(OC)c2c(c1)OCO2)c1cc(OC)c2c(c1)OCO2` [PepE, Peperomin E], the “amount of ASK1 bound to Trx1” value in assay [1] was “dose-dependent decrease”. Besides, the “BIAM alkylation of Sec residue of TrxR1” value at Sec residue in TrxR1 is “significantly block”. The Kd – broadly, the equilibrium constant for the complex coming apart – at GSS came to 272 µM; at NADPH-reduced TrxR1 (NADPH-reduced TrxR1 0.9 μM, 25 °C), 0.34 µM; at NADPH-reduced TrxR1 (Table S3) it was 0.341 µM; on GPX1, 534 µM. For the same compound, the kon (as a rule, a measure of how fast the partners come together) worked out at 2740 M⁻¹ s⁻¹ on GSS, 12400 M⁻¹ s⁻¹ at NADPH-reduced TrxR1 and 6400 M⁻¹ s⁻¹ at GPX1. The koff at GSS (read-out: Kdis) stood at 0.745 s⁻¹; on NADPH-reduced TrxR1 (read-out: Kdis), 0.00423 s⁻¹.
